Measurements as given in patent US20250066409A1, “DERIVATIVE OF PENTACYCLIC TRITERPENOIDAL SAPONIN AND ITS PREPARATION METHOD AND APPLICATION” (SOOCHOW UNIVERSITY, priority 2022, published 2025).

Key:
IL-6 = IL-6 release from LPS-stimulated THP-1 cells, ELISA; format: cell-based; conditions: pretreatment 1 h, LPS 1 μg/mL 24 h, P<0.05
Procedure: (§1) THP-1 cells were seeded in a 6-well plate at 2×10^5 cells/well and cultured conventionally. After the cells reached 80%, they were induced with 100 ng/ml of PMA for 12 h, and then the original medium was discarded, and new complete medium was added. The control group was pretreated with B4 (0.1, 1, 10 μM) for 1 h, and the experimental group was pretreated with A3-6 (0.1, 1, 10 μM) for 1 h. After 1 h, the other groups were removed from the blank group and incubated with 1 μg/mL LPS for 24 h. The culture supernatant was collected, and the IL-6 and TNF-α contents were finally determined and calculated using ELISA kits step by step according to their instructions. The effect of A3-6 on the release of inflammatory factors was tested by ELISA kits.

TNF-α = TNF-α release from LPS-stimulated THP-1 cells, ELISA; format: cell-based; conditions: pretreatment 1 h, LPS 1 μg/mL 24 h, P<0.05
Procedure: as §1

DSS-induced colitis mice = test: DSS-induced colitis in mice (DAI score, colon length); format: in vivo, ICR mice; conditions: B4 group (100 mg/kg by gavage), 5% DSS mice
Procedure: ICR mice were fed normally for 3 days, with free access to water and food during the feeding period. After weighing, the mice were randomly divided into groups, including normal group, model group (DSS group), A3-6 (15, 30, 60 mg/kg) group, A3-6 (60 mg/kg)+DADA (50 mg/kg) group, and positive drug B4 (100 mg/kg) group. A3-6 was administered by gavage with hydroxypropyl β-cyclodextrin (1:3), B4 was dissolved in water and administered by gavage, and DADA (50 mg/kg) was injected intraperitoneally, once a day. The day before modeling, the weight was weighed and A3-6, DADA and B4 were pre-administered according to body weight. After 24 hours of administration, DSS was dissolved in the drinking water for mice. The mice in the model group and the administration group were continuously given 5% DSS for 8 days and weighed every day. […] After the 9th day of administration, the mice were sacrificed, blood and colon were collected, and the length of the colon was measured.
A3-6 (15 mg/kg, 30 mg/kg and 60 mg/kg) or B4 (100 mg/kg) were administered by gavage once daily for 9 days. […] The DAI scores of each group of mice were calculated daily according to the scoring requirements.
The mice colitis model was constructed using 5% DSS to evaluate the therapeutic effect of A3-6 on inflammatory bowel disease (IBD)-. […] The DAI score of the mice was comprehensively evaluated.

## C=C(C)[C@@H]1CC[C@]2(C(=O)O[C@@H]3O[C@H](CO[C@@H]4O[C@H](CO)[C@@H](O[C@@H]5O[C@@H](C)[C@H](O)[C@@H](O)[C@H]5O)[C@H](O)[C@H]4O)[C@@H](O)[C@H](O)[C@H]3O)CC[C@]3(C)[C@H](CC[C@@H]4[C@@]5(C)CC[C@H](O[C@@H]6OC[C@H](O)[C@H](O)[C@H]6O[C@@H]6O[C@@H](C)[C@H](O)[C@@H](O)[C@H]6O)[C@@](C)(CO)[C@@H]5CC[C@]43C)[C@@H]12 [B4, anemoside B4]
IL-6; 1 μM
  release of IL-6 compared with the model group: significantly reduced
IL-6; 10 μM
  release of IL-6 compared with the model group: significantly reduced
TNF-α; 1 μM
  release of TNF-α compared with the model group: significantly reduced
TNF-α; 10 μM
  release of TNF-α compared with the model group: significantly reduced
DSS-induced colitis mice
  colon length: could restore the colon length
